Measurements reported in ChEMBL document CHEMBL5038570, “Discovery of Novel Pyrrolo[2,3-d]pyrimidine-based Derivatives as Potent JAK/HDAC Dual Inhibitors for the Treatment of Refractory Solid Tumors” (J Med Chem, 2022).
Active and inactive are the calls of the source. The calls are words filed in the database; no cut-off is given here.

Legend:
4T1 [1] = assay: Induction of apoptosis in mouse 4T1 cells assessed as viable cells at 10 uM measured after 48 hrs by annexin V-FITC/propidium iodide staining based flow cytometry (reference value: 89.5%); assay type: functional
4T1 [2] = assay: Induction of apoptosis in mouse 4T1 cells assessed as late apoptotic cells at 10 uM measured after 48 hrs by annexin V-FITC/propidium iodide staining based flow cytometry (reference value: 4.99%); assay type: functional
MDA-MB-231 [3] = assay type: functional, Mus musculus; conditions: dose 100 mg/kg; time 14 day
4T1 [4] = assay: Induction of apoptosis in mouse 4T1 cells assessed as early apoptotic cells at 10 uM measured after 48 hrs by annexin V-FITC/propidium iodide staining based flow cytometry (reference value: 1.12%); assay type: functional
4T1 [5] = assay: Induction of apoptosis in mouse 4T1 cells assessed as necrotic cells at 10 uM measured after 48 hrs by annexin V-FITC/propidium iodide staining based flow cytometry (reference value: 4.35%); assay type: functional
MDA-MB-231 [6] = assay: Induction of apoptosis in human MDA-MB-231 cells assessed as early apoptotic cells at 10 uM measured after 48 hrs by annexin V-FITC/propidium iodide staining based flow cytometry (reference value: 3.09%); assay type: functional
MDA-MB-231 [7] = assay: Induction of apoptosis in human MDA-MB-231 cells assessed as necrotic cells at 10 uM measured after 48 hrs by annexin V-FITC/propidium iodide staining based flow cytometry (reference value: 5.38%); assay type: functional
[8] = target: T1, Protein deacetylase HDAC6 (Homo sapiens) (UniProt Q9UBN7); assay: Inhibition of HDAC6 (unknown origin) at 10 uM incubated for 60 min by microplate reader analysis relative to control
T1 sequence (whole entry): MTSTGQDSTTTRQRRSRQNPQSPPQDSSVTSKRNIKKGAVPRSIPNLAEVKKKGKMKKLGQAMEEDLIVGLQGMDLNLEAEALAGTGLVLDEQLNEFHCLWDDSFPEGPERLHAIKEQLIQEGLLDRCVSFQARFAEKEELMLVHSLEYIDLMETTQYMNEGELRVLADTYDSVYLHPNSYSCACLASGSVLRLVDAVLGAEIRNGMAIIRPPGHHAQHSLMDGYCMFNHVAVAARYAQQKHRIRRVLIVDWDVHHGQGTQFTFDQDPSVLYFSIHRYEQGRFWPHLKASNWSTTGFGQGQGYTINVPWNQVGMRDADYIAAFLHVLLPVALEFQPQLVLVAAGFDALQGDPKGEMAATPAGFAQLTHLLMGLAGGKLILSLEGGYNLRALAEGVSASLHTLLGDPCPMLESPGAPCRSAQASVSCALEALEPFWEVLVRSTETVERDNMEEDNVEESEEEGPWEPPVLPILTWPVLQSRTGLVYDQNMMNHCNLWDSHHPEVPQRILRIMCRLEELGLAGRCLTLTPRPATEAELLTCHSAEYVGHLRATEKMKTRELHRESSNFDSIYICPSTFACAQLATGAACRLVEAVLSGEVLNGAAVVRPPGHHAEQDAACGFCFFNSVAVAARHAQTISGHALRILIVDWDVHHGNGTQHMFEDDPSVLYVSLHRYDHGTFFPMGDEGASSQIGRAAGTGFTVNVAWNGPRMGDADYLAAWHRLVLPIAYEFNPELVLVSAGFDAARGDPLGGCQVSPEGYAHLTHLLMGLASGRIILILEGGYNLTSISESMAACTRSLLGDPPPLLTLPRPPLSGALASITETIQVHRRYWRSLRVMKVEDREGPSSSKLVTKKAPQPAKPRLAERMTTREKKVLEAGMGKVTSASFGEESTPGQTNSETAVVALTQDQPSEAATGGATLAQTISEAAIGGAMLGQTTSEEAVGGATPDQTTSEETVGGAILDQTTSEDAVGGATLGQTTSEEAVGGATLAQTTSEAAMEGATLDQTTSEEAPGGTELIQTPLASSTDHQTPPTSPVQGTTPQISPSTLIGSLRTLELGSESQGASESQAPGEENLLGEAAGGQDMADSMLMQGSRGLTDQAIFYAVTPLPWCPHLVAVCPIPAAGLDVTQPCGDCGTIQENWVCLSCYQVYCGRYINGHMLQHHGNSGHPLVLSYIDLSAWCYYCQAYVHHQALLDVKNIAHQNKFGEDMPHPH

4T1 [9] = assay: Induction of apoptosis in mouse 4T1 cells assessed as viable cells at 5 uM measured after 48 hrs in presence of ruxolitinib by annexin V-FITC/propidium iodide staining based flow cytometry (reference value: 89.5%); assay type: functional
4T1 [10] = assay: Induction of apoptosis in mouse 4T1 cells assessed as necrotic cells at 5 uM measured after 48 hrs in presence of ruxolitinib by annexin V-FITC/propidium iodide staining based flow cytometry (reference value: 4.35%); assay type: functional
[11] = target: Tyrosine-protein kinase JAK2 (Homo sapiens, UniProt O60674); assay: Inhibition of JAK2 (unknown origin) assessed as inhibition rate at 10 uM incubated for 60 mins by microplate reader analysis relative to control
4T1 [12] = assay: Induction of apoptosis in mouse 4T1 cells assessed as rly apoptotic cells at 5 uM measured after 48 hrs in presence of ruxolitinib by annexin V-FITC/propidium iodide staining based flow cytometry (reference value: 1.12%); assay type: functional
MDA-MB-231 [13] = assay: Induction of apoptosis in human MDA-MB-231 cells assessed as viable cells at 2.5 uM measured after 48 hrs in presence of ruxolitinib by annexin V-FITC/propidium iodide staining based flow cytometry (reference value: 85.7%); assay type: functional
4T1 [14] = assay: Induction of apoptosis in mouse 4T1 cells assessed as late apoptotic cells at 5 uM measured after 48 hrs in presence of ruxolitinib by annexin V-FITC/propidium iodide staining based flow cytometry (reference value: 4.99%); assay type: functional
MDA-MB-231 [15] = assay: Induction of apoptosis in human MDA-MB-231 cells assessed as viable cells at 2.5 uM measured after 48 hrs by annexin V-FITC/propidium iodide staining based flow cytometry (reference value: 85.7%); assay type: functional

Tyrosine-protein kinase JAK2, sequence (O60674 whole entry): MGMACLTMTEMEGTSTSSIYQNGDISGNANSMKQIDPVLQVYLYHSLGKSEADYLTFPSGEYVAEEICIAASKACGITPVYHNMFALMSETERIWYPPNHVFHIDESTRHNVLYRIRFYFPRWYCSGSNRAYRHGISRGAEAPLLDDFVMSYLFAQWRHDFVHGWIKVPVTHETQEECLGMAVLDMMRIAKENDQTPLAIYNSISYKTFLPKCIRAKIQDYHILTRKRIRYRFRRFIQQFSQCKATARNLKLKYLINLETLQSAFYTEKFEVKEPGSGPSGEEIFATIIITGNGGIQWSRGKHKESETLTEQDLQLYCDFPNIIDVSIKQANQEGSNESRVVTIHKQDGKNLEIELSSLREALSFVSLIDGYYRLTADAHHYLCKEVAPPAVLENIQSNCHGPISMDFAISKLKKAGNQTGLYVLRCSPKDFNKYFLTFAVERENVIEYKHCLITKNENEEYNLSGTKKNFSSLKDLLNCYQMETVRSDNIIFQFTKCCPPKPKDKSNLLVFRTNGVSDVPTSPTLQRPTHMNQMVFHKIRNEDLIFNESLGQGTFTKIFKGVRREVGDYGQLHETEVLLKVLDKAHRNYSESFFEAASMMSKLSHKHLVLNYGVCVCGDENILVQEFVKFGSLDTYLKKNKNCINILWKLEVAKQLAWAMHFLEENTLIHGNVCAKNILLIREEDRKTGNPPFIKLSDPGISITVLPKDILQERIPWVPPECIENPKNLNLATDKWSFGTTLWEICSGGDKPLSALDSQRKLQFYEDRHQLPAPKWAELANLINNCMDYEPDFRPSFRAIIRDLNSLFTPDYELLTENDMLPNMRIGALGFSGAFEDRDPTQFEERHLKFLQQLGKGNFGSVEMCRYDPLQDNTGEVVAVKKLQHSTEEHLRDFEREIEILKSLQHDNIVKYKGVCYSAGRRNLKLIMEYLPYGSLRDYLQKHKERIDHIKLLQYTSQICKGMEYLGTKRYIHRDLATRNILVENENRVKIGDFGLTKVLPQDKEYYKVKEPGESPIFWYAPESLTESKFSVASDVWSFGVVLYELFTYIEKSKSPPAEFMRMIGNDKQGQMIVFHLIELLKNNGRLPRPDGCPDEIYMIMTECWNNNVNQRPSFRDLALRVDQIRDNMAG

SMILES	Activity (4T1 [1])	Activity (4T1 [2])	TGI (MDA-MB-231 [3])	Activity (4T1 [4])	Activity (4T1 [5])	Activity (MDA-MB-231 [6])	Activity (MDA-MB-231 [7])	inhibition [8]	Activity (4T1 [9])	Activity (4T1 [10])	inhibition [11]	Activity (4T1 [12])	Activity (MDA-MB-231 [13])	Activity (4T1 [14])	Activity (MDA-MB-231 [15])
N#CC[C@H](C1CCCC1)n1cc(-c2ncnc3[nH]ccc23)cn1 [RUXOLITINIB]	89%	4%	12%	2.04%	4.98%	6.09%	6.09%	inactive	–	–	–	–	–	–	–
O=C(CCCCCCC(=O)Nc1ccccc1)NO [VORINOSTAT]	–	–	–	–	–	–	–	–	65.2%	1.23%	inactive	28.6%	25.8%	4.98%	57.3%
